Structures are written as SMILES.

One series deals with food-deprived rats. As to the kind of experiment: Hypophagia-inducing activity in food-deprived rats. Type of series: in vivo, rat. Conditions: 10 mg/kg orally; rats deprived of food for 24 h; one hour after treatment; FIGS. 2A, 2B. An excerpt:
Verification of the consumption of food in food-deprived rats represents a condition that reproduces the complex system regulating the sensation of hunger and the intake of food in humans. Fasting in fact introduces many physiological changes that can lead to activation of the circuits that are specifically dedicated to the control of food intake. As is well known, the use of this model constitutes a valid tool for identifying substances capable of interfering with appetite disorders and can be used in particular for monitoring conditions such as hyperphagia, bulimia and obesity.
Male CD rats weighing 300-350 g were used.
The animals were kept in a room with a controlled cycle of light and darkness (6:00-18:00). Before the test, which was carried out at 9:30 corresponding to daytime, the animals were deprived of food for 24 h. At the end of the fasting period, the animals were treated orally with the test compounds (10 mg/kg) in an aqueous vehicle and, immediately after treatment, a pre-weighed amount of food was made available. One hour after treatment, the food consumption was evaluated by weighing the amount of food remaining. The control animals were treated orally with the vehicle (water) used for administering the test compounds.

For a further series, the system named is Male CD rats. As to the kind of experiment: Anxiogenic activity in the rat (test of social interaction). Type of series: in vivo. As to conditions: intraperitoneal; evaluated after 20 minutes during a 10-minute period; FIG. 1. An excerpt: The anxiogenic activity of the compounds of the present invention was investigated by means of the social interaction test in the rat, which, as is known by a person skilled in the art, represents an experimental model that is predictive of the effects in humans.
Measurement of the time spent by pairs of animals in interacting with one another and exploring their surroundings (usually an arena consisting of a Perspex container) constitutes a model for verifying the action of substances that influence social behaviour.
Male CD rats weighing 150-250 g were used.
The animals were kept in a room with a controlled cycle of light and darkness (6:00-18:00). To promote acclimatization and eliminate responses induced by stress conditions, the rats were handled and were injected daily with the vehicle (water) for the four days preceding administration of the test compounds.
On the fifth day the animals were treated intraperitoneally with the test compounds and, after 20 minutes, the interaction time (seconds) spent by the animals during a 10-minute period was evaluated.

Another series concerns rat. Conditions: Eur J Pharmacol, 1989, 164: 445-54; cited from earlier work.

In the case of `CC1CN(c2cccc(Cl)c2)CCN1` (racemic) [Compound 1], the “amount of food consumed, lower than that consumed by the control animals” value with food-deprived rats was “approx. 28%”. With `Clc1cccc(N2CCNCC2)c1` [mCPP, m-chlorophenyl-piperazine], the “interaction time relative to that of the control animals” value in the series with Male CD rats was “approx. 50%”. For the same molecule, the “anxiogenic effects (social interaction time)” value with rat is listed as “reduce social interaction time”.

As to `C[C@@H]1CN(c2cccc(Cl)c2)CCN1` [Compound 3], in the series on food-deprived rats, the “amount of food consumed, lower than that consumed by the control animals” value is recorded as ~20%.

With `FC(F)(F)c1cccc(N2CCNCC2)c1` [TFMPP, m-trifluoromethyl phenylpiperazine], the “anxiogenic effects (social interaction time)” value with rat was “reduce social interaction time”. On to `C[C@H]1CN(c2cccc(Cl)c2)CCN1` [Compound 2], for which the “amount of food consumed, lower than that consumed by the control animals” value in the series with food-deprived rats was 75-80%.

The values are drawn from US7879836B2, “Pharmaceutical composition comprising a 1-(3-chlorophenyl)-3-alkylpiperazine for treating appetite disorder” (Aziende Chimiche Riunite Angelini Francesco A.C.R.A.F. …, priority 2005, dated 2011).
